# Patent US20250136597A1, “COMPOUNDS AND COMPOSITIONS FOR TREATING CONDITIONS ASSOCIATED WITH STING ACTIVITY” (IFM Due, Inc., priority 2020, published 2025)
# Target: T1, hSTING (Homo sapiens, UniProt Q86WV6, G230A/H232R/R293Q/R71H)
# T1 construct: host or cells: THP1-Dual KO-IFNAR2 cells
# Experiment: STING reporter assay in THP1-Dual KO-IFNAR2 cells (2′3′cGAMP stimulation, luciferase reporter)
# Type: cell-based
# Conditions: final 2′3′cGAMP 15 μM, 24 h, luciferase reporter activity
# Experimental: STING pathway activation by the compounds described herein was measured using THP1-Dual™ cells (KO-IFNAR2).
# THP1-Dual™ KO-IFNAR2 Cells (obtained from invivogen) were maintained in RPMI, 10% FCS, 5 ml P/S, 2 mM L-glut, 10 mM Hepes, and 1 mM sodium pyruvate. Compounds were spotted in empty 384 well tissue culture plates (Greiner 781182) by Echo for a final concentration of 0.0017-100 μM. Cells were plated into the TC plates at 40 μL per well, 2×10E6 cells/mL. For activation with STING ligand, 2′3′cGAMP (MW 718.38, obtained from Invivogen), was prepared in Optimem media.
# The following solutions were prepared for each 1×384 plate: • Solution A: 2 mL Optimem with one of the following stimuli: • 60 μL of 10 mM 2′3′cGAMP→150 μM stock • Solution B: 2 mL Optimem with 60 μL Lipofectamine 2000→Incubate 5 min at RT
# 2 mL of solution A and 2 ml Solution B was mixed and incubated for 20 min at room temperature (RT). 20 μL of transfection solution (A+B) was added on top of the plated cells, with a final 2′3′cGAMP concentration of 15 μM. The plates were then centrifuged immediately at 340 g for 1 minute, after which they were incubated at 37° C., 5% CO2, >98% humidity for 24 h. Luciferase reporter activity was then measured. EC50 values were calculated by using standard methods known in the art.
# Luciferase reporter assay: 10 μL of supernatant from the assay was transferred to white 384-plate with flat bottom and squared wells. One pouch of QUANTI-Luc™ Plus was dissolved in 25 mL of water. 100 μL of QLC Stabilizer per 25 mL of QUANTI-Luc™ Plus solution was added. 50 μL of QUANTI-Luc™ Plus/QLC solution per well was then added. Luminescence was measured on a Platereader (e.g., Spectramax I3X (Molecular Devices GF3637001)).
# Luciferase reporter activity was then measured. EC50 values were calculated by using standard methods known in the art.
# T1 sequence (Q86WV6 whole entry R71H/G230A/H232R/R293Q): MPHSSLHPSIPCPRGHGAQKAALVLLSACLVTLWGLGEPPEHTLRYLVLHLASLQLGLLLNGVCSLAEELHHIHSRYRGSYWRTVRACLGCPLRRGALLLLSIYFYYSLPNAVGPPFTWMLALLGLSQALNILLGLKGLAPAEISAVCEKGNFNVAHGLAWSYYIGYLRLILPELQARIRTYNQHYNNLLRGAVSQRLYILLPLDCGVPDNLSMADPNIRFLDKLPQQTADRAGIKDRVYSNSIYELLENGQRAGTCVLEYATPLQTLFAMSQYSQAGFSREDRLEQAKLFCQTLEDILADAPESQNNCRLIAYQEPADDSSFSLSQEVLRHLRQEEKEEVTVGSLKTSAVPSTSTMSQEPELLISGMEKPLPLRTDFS
row,Structure (SMILES),EC50
1,"CCc1ccc(-n2cc(-c3ccc4[nH]cc(NS(=O)(=O)CC5CCCO5)c4c3)cn2)cc1 (stereo not shown) [Compound 101, N-(5-(1-(4-ethylphenyl)-1H-pyrazol-4-yl)-1H-indol-3-yl)-1-(tetrahydrofuran-2-yl)methanesulfonamide]",0.2 to 1 µM
2,"CCc1ccc(-n2cc(-c3ccc4[nH]cc(NS(=O)(=O)CC5CC5)c4c3)cn2)cc1 [Compound 102, 1-cyclopropyl-N-(5-(1-(4-ethylphenyl)-1H-pyrazol-4-yl)-1H-indol-3-yl)methanesulfonamide]",0.2 to 1 µM
3,"CCc1ccc(-n2cc(-c3ccc4[nH]cc(NS(=O)(=O)CC)c4c3)cn2)cc1 [Compound 104, N-(5-(1-(4-ethylphenyl)-1H-pyrazol-4-yl)-1H-indol-3-yl)ethanesulfonamide]",1 to 5 µM
4,"CCc1ccc(-n2cc(-c3ccc4[nH]cc(NS(=O)(=O)C5CCC5)c4c3)cn2)cc1 [Compound 103, N-(5-(1-(4-ethylphenyl)-1H-pyrazol-4-yl)-1H-indol-3 yl)cyclobutanesulfonamide]",0.2 to 1 µM
